# From US20240285724A1, “METHODS AND COMPOSITIONS FOR TREATING OCULAR DISORDERS AND DISEASES” (ONL Therapeutics, Inc., priority 2021, published 2024)
# Residues, ends and D or L forms follow the SMILES beside them.
# Key:
# [1] = Ocular tissue concentration of ONL1204 after intravitreal injection in rabbit eye (LC-MS/MS); conditions: rabbit vitreous humor; single dose 0.1 mg/eye IVT, days 0 to 168
# Method: Standards and blanks were vortex mixed. […] Two hundred (200) uL of water was added.
# The samples were then vortex mixed for 5 minutes.
# The samples were dried with nitrogen at 35° C.
# [2] = tested on: retinal pigment epithelial cell death; test: Sodium iodate (NaIO3) challenge study, lesion area by fluorescein angiography; type: in vivo; conditions: rabbit
# Method: The resulting area was then measured.
smiles,measurement,setting,value
CC[C@H](C)[C@H](NC(=O)[C@H](Cc1ccc(O)cc1)NC(=O)[C@H](CC(N)=O)NC(=O)[C@@H](NC(=O)[C@H](C)NC(=O)CNC(=O)[C@H](CC(C)C)NC(=O)[C@H](Cc1ccc(O)cc1)NC(=O)[C@@H](NC(=O)[C@H](Cc1cnc[nH]1)NC(=O)[C@@H](N)Cc1cnc[nH]1)[C@@H](C)CC)C(C)C)C(=O)N[C@@H](Cc1ccc(O)cc1)C(N)=O [ONL1204] (H-HHIYLGAVNYIY-NH2),t1/2 (half-life in the vitreous),[1],279.8 days
same,Lesion size vs negative control,"[2]; 25 ug per eye IVT on Day 0, NaIO3 challenge Day 4",significantly lower than negative control
same,Lesion size vs negative control,"[2]; 100 ug per eye IVT on Day 0, NaIO3 challenge Day 4",significantly lower than negative control
same,Lesion size vs negative control,"[2]; 100 ug per eye IVT on Day 0, NaIO3 challenge Day 14",significantly smaller lesion size then both negative controls and those treated with 25 ug
same,Lesion size vs negative control,"[2]; 100 ug per eye IVT on Day 0, NaIO3 challenge Day 28",significantly smaller lesion size then both negative control animals and those treated with 25 ug
